# Measurements from patent US20150031675A1, “DIAZABICYCLO[3.3.1]NONANES, METHODS OF SYNTHESIS, AND USES THEREOF” (Targacept, Inc., priority 2012, published 2015).
# pKi: −log10 of the molar value. Read-outs that look alike come from different tables or passages of the source.
# Tests used:
# [1] = target: Human α7 nAChR (UniProt P36544); assay: Radioligand binding ([3H]MLA) at α7 nAChR
# [2] = target: T1, Human α4β2 nAChR (Homo sapiens, UniProt P17787+P43681); assay: Radioligand binding ([3H]nicotine) at α4β2 nAChR, membranes from SH-EP1/human α4β2 clonal cells
# T1 construct: expressed in transfected cells; host or cells: SH-EP1 clonal cells expressing human α4β2
# T1 sequence (P43681 29-627 limits assumed): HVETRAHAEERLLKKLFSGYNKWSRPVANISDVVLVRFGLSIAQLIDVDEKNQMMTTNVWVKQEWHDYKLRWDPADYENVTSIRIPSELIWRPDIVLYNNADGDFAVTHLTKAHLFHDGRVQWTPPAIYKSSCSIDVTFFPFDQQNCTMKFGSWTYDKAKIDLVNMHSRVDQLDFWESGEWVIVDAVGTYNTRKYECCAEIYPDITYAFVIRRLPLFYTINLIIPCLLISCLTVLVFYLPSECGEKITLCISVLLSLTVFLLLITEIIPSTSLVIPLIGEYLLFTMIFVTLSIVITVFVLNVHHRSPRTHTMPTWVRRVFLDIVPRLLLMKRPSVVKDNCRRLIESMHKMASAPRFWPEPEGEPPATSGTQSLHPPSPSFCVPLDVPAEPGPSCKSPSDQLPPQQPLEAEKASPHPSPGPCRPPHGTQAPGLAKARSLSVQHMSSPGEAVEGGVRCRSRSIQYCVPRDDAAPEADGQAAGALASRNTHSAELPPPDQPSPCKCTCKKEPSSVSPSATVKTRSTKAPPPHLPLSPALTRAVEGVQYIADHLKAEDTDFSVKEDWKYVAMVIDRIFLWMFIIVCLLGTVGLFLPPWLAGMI
# T1 sequence (P17787 26-502): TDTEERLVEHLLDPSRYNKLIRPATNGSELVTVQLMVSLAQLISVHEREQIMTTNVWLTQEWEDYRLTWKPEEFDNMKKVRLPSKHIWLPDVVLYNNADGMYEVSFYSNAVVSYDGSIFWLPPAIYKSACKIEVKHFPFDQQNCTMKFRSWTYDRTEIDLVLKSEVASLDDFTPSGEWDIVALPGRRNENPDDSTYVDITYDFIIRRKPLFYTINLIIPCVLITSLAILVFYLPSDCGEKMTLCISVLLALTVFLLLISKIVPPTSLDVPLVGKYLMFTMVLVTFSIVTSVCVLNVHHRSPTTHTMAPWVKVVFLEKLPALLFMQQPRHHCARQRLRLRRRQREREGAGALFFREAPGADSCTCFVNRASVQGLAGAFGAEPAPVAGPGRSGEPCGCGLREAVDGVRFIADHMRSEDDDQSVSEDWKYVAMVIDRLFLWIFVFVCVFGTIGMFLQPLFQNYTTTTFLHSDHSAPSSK
# Protocol: Preparation of Membranes from SH-EP1/Human α4β2 Clonal Cells:
# Cell pellets from 40 150 mm culture dishes were pooled, and homogenized by Polytron (Kinematica GmbH, Switzerland) in 20 milliliters of ice-cold preparative buffer. The homogenate was centrifuged at 48,000 g for 20 minutes at 4° C. The resulting pellet was re-suspended in 20 mL of ice-cold preparative buffer and stored at −20° C.
# On the day of the assay, the frozen membranes were thawed and spun at 48,000×g for 20 min. The supernatant was decanted and discarded. The pellet was resuspended in Dulbecco's phosphate buffered saline (PBS, Life Technologies) pH 7.4 and homogenized with the Polytron for 6 seconds. Protein concentrations were determined using a Pierce BCA Protein Assay Kit, with bovine serum albumin as the standard (Pierce Chemical Company, Rockford, Ill.).
# Incubation was terminated by rapid filtration on a multi-manifold tissue harvester (Brandel, Gaithersburg, Md.) using GF/B filters presoaked in 0.33% polyethyleneimine (w/v) to reduce non-specific binding. Tissue was rinsed 3 times in PBS, pH 7.4. Scintillation fluid was added to filters containing the washed tissue and allowed to equilibrate. Filters were then counted to determine radioactivity bound to the membranes by liquid scintillation counting (2200CA Tri-Carb LSC, Packard Instruments, 50% efficiency or Wallac Trilux 1450 MicroBeta, 40% efficiency, Perkin Elmer).
# Data were expressed as disintegrations per minute (DPMs). Within each assay, each point had 2-3 replicates.
# [3] = competition with 5 nM [3H]MLA; Ki by Cheng-Prusoff; read-out: Human α7 Ki
# [4] = read-out: Human α7 Ki; competition with 5 nM [3H]MLA; Ki by Cheng-Prusoff
SMILES,"pKi [1, 3]",pKi [2],"pKi [1, 4]",pKi ([2]; read-out: Human α4β2 Ki)
CN1CCC(N2CC3CC(CN(c4cccnc4)C3)C2)C1 (centres unmarked),6.10,7.96,,
c1cncc(N2CC3CC(C2)CN(C2CCCNCC2)C3)c1 (centres unmarked),,,7.70,9.35
c1cncc(N2CC3CC(C2)CN(C2CNC2)C3)c1,6.26,8.24,,
c1cncc(N2CC3CC(C2)CN(C2CN4CCC2CC4)C3)c1 (centres unmarked),6.29,7.38,,
c1cncc(N2CC3CC(C2)CN(C2CCNC2)C3)c1 (centres unmarked),,,7.62,9.80
c1cncc(N2CC3CC(C2)CN(C2CCCNC2)C3)c1 (centres unmarked),,,7.21,9.10
c1cncc(N2CC3CC(C2)CN(C2CCNCC2)C3)c1,6.10,7.85,,
